# Measurements from patent US10206897B2 (Board of Regents of the University of Nebraska, priority 2000, dated 2019).
# Read-outs that look alike come from different tables or passages of the source.
# Tests used:
# [1] = system: brain microvessel endothelial cells (BMEC); test: prostaglandin E2 release from BMEC monolayers exposed to bacterial lipopolysaccharide; assay type: cell-based
# Excerpt: In an exemplary study primary cultured brain microvessel endothelial cells (BMEC) were used as an in vitro cell culture model to examine inflammation. These cells have been used previously to examine the effects of the inflammatory mediators such as tumor necrosis factor (TNF), and bacterial lipopolysaccharide (LPS). See Mark, K. S. and Miller, D. W. increased Permeability of Prim my Cultured Brain Microvessel Endothelial Cell Monolayers Following Tumor Necrosis Factor-Alpha Exposure. Life Sci. 64: 1941-1953, 1999, which is herein incorporated by reference in its entirety. See also Mark, K. S., Trickier, W. J., and Miller, D. W. Role of Cyclooxygenase-2 and Prostaglandins in the TNF-a Induced Changes in Brain Microvessel Endothelial Cell Permeability. J. Pharmacol. Exp. Ther. 297: I 051-1058, 200 I, which is herein incorporated by reference in its entirety. See also McGuire, T. R., Hoie, E., Trickier, […]., and Miller, D. W. Release of Prostaglandin E-2 in Bovine Brain Endothelial Cells After Exposure to Three Unique Forms of the Antifuingal Drug Amphotericin: Role of COX-2 in Amphotericin-Induced Fever. Life Sci. (accepted for publication), which is herein incorporated by reference in its entirety. These studies indicate that following exposure to either tumor necrosis factor (TNF) or bacterial lipopolysaccharide (LPS), there is an increased expression of cyclooxygenase 2 (COX 2). […] Treatment with bacterial lipopolysaccharide (LPS) alone caused significant increases in prostaglandin E2 (PGE2) release from the cells over the 12 hour exposure period (approximately 1a-fold increase over control).
# C2Cl2 Muscle Cells [2] = test: accumulation (loading) of creatine in C2Cl2 muscle cells; assay type: cell-based, mouse; conditions: 3.2 mg/ml, up to 1 hour at 37 C
# Excerpt: (§1) Over this time period it was observed that here is a significant, approximately two-fold, increase in the “loading” of CEE in the muscle cells versus CM loading. FIGS. 13 through 15 exemplify the effects of this increased loading of CEE in the C2Cl2 cells under normal and hypoxic conditions. FIGS. 13 through 15 illustrate the results of studies of lactic acid levels in and lactic acid release from C2Cl2 muscle cells. […] The results were gathered over a six hour period of time.
# MDCK monolayers [3] = conditions: dog, 1 h
# C2Cl2 Muscle Cells [4] = test: lactic acid levels in and release from C2Cl2 muscle cells under normal and hypoxic conditions; assay type: cell-based, mouse; conditions: 100 uM, six hour period
# Excerpt: as §1
# cyclooxygenase 1 = cyclooxygenase 1 (Homo sapiens, UniProt P23219); test: direct inhibition of cyclooxygenase 1; conditions: at concentrations used in the current study
# cyclooxygenase 2 = target: T1, cyclooxygenase 2 (Homo sapiens, UniProt P35354); test: direct inhibition of cyclooxygenase 2; conditions: at concentrations used in the current study
# T1 sequence (P35354 18-604): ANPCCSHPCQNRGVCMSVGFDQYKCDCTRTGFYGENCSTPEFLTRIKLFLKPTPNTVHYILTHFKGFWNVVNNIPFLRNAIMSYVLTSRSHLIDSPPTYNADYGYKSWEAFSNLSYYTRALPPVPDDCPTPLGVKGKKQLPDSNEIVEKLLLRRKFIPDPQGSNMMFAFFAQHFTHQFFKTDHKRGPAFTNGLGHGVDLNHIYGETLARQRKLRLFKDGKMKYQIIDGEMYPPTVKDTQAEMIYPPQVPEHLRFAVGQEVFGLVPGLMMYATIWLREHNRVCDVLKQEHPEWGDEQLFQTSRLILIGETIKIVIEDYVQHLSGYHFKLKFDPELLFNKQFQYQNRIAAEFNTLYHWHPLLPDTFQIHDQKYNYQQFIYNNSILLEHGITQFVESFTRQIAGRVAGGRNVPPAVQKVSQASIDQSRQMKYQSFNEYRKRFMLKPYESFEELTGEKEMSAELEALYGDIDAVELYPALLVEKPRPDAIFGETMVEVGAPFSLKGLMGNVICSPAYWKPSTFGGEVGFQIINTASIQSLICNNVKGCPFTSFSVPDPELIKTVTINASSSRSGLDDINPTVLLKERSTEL
# MDCK monolayers [5] = test: permeability (flux) across MDCK monolayers; conditions: over one hour
# [6] = gastric pH range of 1-2; cited from earlier work
# [7] = of the administered dose; cited from earlier work
# [8] = system: inflammatory responses produced by carrageenan, 5-hydroxytryptamine, nystatin and formaldehyde; conditions: oral; cited from earlier work
# cyclooxygenase 1, sequence (P23219 24-599, species assumed): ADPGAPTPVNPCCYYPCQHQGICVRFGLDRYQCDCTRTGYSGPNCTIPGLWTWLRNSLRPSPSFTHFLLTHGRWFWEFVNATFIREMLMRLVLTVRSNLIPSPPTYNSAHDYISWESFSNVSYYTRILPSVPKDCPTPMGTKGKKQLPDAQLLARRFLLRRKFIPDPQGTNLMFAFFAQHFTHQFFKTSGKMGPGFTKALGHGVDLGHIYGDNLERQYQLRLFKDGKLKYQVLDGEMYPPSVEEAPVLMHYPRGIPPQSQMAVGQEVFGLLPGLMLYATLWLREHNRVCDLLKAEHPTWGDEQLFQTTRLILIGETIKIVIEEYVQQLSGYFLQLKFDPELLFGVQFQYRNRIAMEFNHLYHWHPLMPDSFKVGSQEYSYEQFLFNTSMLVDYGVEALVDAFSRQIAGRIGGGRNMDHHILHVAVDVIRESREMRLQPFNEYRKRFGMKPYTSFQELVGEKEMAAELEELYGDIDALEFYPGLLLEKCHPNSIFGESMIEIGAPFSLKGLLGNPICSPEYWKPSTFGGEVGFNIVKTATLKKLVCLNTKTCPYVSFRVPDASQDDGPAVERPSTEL
compound,measurement,setting,value
"CCOC(=O)CN(C)C(=N)N.Cl [creatine ethyl ester hydrochloride, Creatine Ethyl Ester Hydrochloride]",concentration giving maximal reduction in PGE2 release,"[1]; LPS 20 ng/ml, 12 hour exposure",100 µM
same,lowest concentration with reduction in PGE2 release,"[1]; LPS 20 ng/ml, 12 hour exposure",10 µM
same,effect on prostaglandin E2 (PGE2) release following LPS exposure,"[1]; LPS 20 ng/ml, 12 hour exposure, co-administration",significantly reduced
CCOC(=O)CN(C)C(=N)N [creatine ethyl ester],increase in loading in muscle cells versus CM loading,C2Cl2 Muscle Cells [2],approximately two-fold
same,flux across MDCK monolayer,MDCK monolayers [3],approximately 20%
same,magnitude of PGE2 response compared with indomethacin (10 μM),[1]; 100 μM,similar
same,cellular lactic acid levels,C2Cl2 Muscle Cells [4],marked reduction
same,lactic acid release,C2Cl2 Muscle Cells [4],marked reduction
same,direct inhibition of cyclooxygenase 1,cyclooxygenase 1,have not presently revealed an inhibition
same,direct inhibition of cyclooxygenase 2,cyclooxygenase 2,have not presently revealed an inhibition
CN(CC(=O)O)C(=N)N [creatine monohydrate],magnitude of PGE2 response compared with indomethacin (10 μM),[1]; 1000 μM,similar
same,concentration giving maximal reduction in PGE2 release,"[1]; LPS 20 ng/ml, 12 hour exposure",at least 1000 μM
same,lowest concentration with reduction in PGE2 release,"[1]; LPS 20 ng/ml, 12 hour exposure",100 µM
same,flux across MDCK monolayer,MDCK monolayers [5],approximately 10%
same,direct inhibition of cyclooxygenase 1,cyclooxygenase 1; monohydrate,have not presently revealed an inhibition
same,direct inhibition of cyclooxygenase 2,cyclooxygenase 2; monohydrate,have not presently revealed an inhibition
CN(CC(=O)O)C(=N)N [creatine],creatinine/creatine ratio,[6],greater than or equal to 30
same,total estimated oral absorption,[7],≤ 14%
same,Partition,partition coefficient,0.015 +/− 0.007
same,direct inhibition of cyclooxygenase 1,cyclooxygenase 1,does not inhibit
same,suppression of experimentally induced inflammatory responses,[8],orally effective
same,direct inhibition of cyclooxygenase 2,cyclooxygenase 2,does not inhibit
